Assay results: patent US8167866B2, “Drug delivery system for accelerated subcutaneous absorption” (priority 2004, dated 2012)

Assays:
cutaneous blood vessels = experiment: topical application of aqueous solution, erythema of the affected area; type: in vivo, human; conditions: patient, within minutes
Source text: The fluid or the solution of pharmacologic drug may include a crystalloid solution or a dilute solution of pharmacologic drug such as an antibiotic. The drug used to accelerate the absorption rate of the fluid or the pharmacologic drug is operative to cause capillary vasodilatation, that is, vasodilatation of cutaneous blood vessels. The dilation of capillaries increases the rate of blood flowing through the affected subcutaneous tissue; and consequently, increases the rate of absorption into the systemic circulation of the fluid or pharmacologic drug. As the rate of absorption and circulation of the fluid or pharmacologic drug increases, a clinically significant degree of systemic absorption of the fluid or pharmacologic drug can be achieved without the application of IV access. Currently, many drugs are available to provide the vasodilatation of cutaneous blood vessels of a human body. However, it is appreciated that those drugs which are pharmacologic and potentially toxic to the human bodies are not the appropriate candidates for such drug. For example, although lidocaine is effective to cause dilation of capillaries and increase the rate of blood flowing through affected subcutaneous tissue, which in turn accelerates the absorption rate of drug, it might not be an appropriate candidate for such a drug due to its potentially toxic effect if its concentration is too high. […]

[1] = typical duration; routine lidocaine versus tumescent infiltration; cited from earlier work

SMILES | erythema of the affected area (cutaneous blood vessels) | duration of local anesthesia [1] [h]
COC(=O)c1cccnc1 [methyl-nicotinate] | very obvious erythema | 
CCN(CC)CC(=O)Nc1c(C)cccc1C [lidocaine] |  | ~2
CNC(=O)c1cccnc1 [methyl-nicotinamide] | very obvious erythema | 
